Drawing on the SangsterLogP compilation, this text covers logP for 22 compounds.

A word on the logP: it is a log measure of how a compound divides between an organic and an aqueous phase.

Molecules are shown by their SMILES.

Compound `CC(O)c1ccc2ccccc2c1` (configuration not stated) registered a lipophilicity (logP) of 2.68.

In turn, `O=Cc1ccccc1Cl` came in with a lipophilicity (logP) of 2.28.

With `O=[N+]([O-])c1cc(F)ccc1F`, the log partition coefficient (logP) is 1.86.

For the compound `O=[N+]([O-])c1ccc(F)cc1`, the logP came to 1.89.

In the case of `Oc1ccc2cc(O)ccc2c1`, the log partition coefficient (logP) worked out at 1.9.

`O=Cc1cccc(Cl)c1`: the log partition coefficient (logP) came out at 2.26.

Take `Cc1cc2ccccc2o1`: the lipophilicity (logP) came to 3.22.

For `OCc1cccc2ccccc12`, the logP is 2.37.

For the compound `O=C(CBr)c1ccccc1`, the log partition coefficient (logP) stood at 2.19.

Turning to `Oc1ccc2c(c1)CCCC2`, the logP was 2.9.

The compound `CC(=O)c1ccccc1Br` registered a log partition coefficient (logP) of 2.28.

`OC1CCCc2ccccc21` (configuration not stated) returned a log partition coefficient (logP) of 1.98.

With `OCC1c2ccccc2-c2ccccc21`, the logP stood at 2.89.

For the compound `O=[N+]([O-])c1cccc(F)c1`, the logP is 2.02.

Take `CC(=O)c1cccc(Cl)c1`: the logP was determined as 2.43.

`O=[N+]([O-])c1ccccc1F` returned a logP of 1.84.

Turning to `Oc1cc2ccccc2cc1O`, the lipophilicity (logP) was determined as 2.24.

`O=[N+]([O-])c1cc(F)cc(F)c1` gave a lipophilicity (logP) of 2.03.

`CCCc1ccccc1O` showed a logP of 2.93.

On to `CC(=O)c1cccc(Br)c1`, for which the lipophilicity (logP) amounted to 2.58.

Compound `CC(=O)c1ccc(Br)cc1` displayed a logP of 2.57.

With `Oc1cccc2c(O)cccc12`, the log partition coefficient (logP) amounted to 2.19.
